Legend:
JAK1 = molecular target: T1, JAK1 (Homo sapiens, UniProt P23458); assay: JAK1 enzyme inhibition test (LANCE method); assay type: biochemical; settings: for inhibition at 10 µM: read-out: Inhibitory rate (%) JAK1 10 μM; for inhibition at 1 µM: test compound 1 μM, read-out: Inhibitory rate (%) JAK1 1 μM
T1 construct: purchased Invitrogen
Summary of the method: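 Reactions ran 1 h at room temperature in HEPES pH 7.5/MgCl2 buffer, with ATP solution at 150 μM and JAK1 and ULight peptide solutions at 187.5 ng/mL and 300 nM. Reactions were stopped with EDTA, and phosphorylation was read by Eu antibody time-resolved fluorescence at 665 nm. Inhibition was scaled to a no-enzyme control as 100%.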

Tyk2 = molecular target: T2, Tyk2 (Homo sapiens, UniProt P29597); assay: Tyk2 enzyme inhibition test (LANCE method); assay type: biochemical; settings: test compound 1 μM; for inhibition at 1 µM: read-out: Inhibitory rate (%) Tyk2 1 μM
T2 construct: purchased Invitrogen
Summary of the method: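 LANCE TR-FRET read-out (ex 340/em 665 nm, 100 μs delay) of ULight-JAK1 phosphorylation, with no-enzyme wells as 100% inhibition. Reaction run 1 h at room temperature in pH 7.5 HEPES buffer; enzyme 375 ng/mL, substrate 300 nM and ATP 30 μM are solution concentrations before mixing.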

[1] = test compound 10 μM (Ex. 182-220), beside Tyk2 1 μM

T1 sequence (P23458 whole entry): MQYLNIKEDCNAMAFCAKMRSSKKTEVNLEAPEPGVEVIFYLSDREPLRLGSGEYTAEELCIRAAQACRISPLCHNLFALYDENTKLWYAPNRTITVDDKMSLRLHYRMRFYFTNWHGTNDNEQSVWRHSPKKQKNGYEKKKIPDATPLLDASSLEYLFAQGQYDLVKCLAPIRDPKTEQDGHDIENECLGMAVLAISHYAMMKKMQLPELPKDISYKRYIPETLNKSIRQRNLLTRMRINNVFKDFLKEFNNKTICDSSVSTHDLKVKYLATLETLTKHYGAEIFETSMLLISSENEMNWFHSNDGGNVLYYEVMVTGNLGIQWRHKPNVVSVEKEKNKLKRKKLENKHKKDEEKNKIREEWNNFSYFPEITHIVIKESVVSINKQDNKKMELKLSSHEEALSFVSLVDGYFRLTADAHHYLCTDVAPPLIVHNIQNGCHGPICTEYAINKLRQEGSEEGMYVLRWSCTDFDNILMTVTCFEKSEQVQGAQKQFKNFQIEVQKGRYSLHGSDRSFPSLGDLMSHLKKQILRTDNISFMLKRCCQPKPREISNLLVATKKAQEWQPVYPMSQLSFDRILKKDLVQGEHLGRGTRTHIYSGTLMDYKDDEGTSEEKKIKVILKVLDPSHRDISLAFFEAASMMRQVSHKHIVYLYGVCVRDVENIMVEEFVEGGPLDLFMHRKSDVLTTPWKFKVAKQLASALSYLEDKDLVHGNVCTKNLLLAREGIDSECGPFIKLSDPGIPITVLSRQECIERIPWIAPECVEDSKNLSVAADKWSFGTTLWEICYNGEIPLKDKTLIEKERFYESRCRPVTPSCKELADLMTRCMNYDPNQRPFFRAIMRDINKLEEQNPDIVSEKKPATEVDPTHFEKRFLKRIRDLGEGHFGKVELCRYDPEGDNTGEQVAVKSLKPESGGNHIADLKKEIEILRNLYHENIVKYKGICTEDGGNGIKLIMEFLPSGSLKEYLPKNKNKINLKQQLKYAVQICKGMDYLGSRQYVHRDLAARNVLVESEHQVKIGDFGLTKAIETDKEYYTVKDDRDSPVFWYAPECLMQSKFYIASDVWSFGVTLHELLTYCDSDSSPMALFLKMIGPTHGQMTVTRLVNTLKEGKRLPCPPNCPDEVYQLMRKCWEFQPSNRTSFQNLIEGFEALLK
T2 sequence (P29597 whole entry): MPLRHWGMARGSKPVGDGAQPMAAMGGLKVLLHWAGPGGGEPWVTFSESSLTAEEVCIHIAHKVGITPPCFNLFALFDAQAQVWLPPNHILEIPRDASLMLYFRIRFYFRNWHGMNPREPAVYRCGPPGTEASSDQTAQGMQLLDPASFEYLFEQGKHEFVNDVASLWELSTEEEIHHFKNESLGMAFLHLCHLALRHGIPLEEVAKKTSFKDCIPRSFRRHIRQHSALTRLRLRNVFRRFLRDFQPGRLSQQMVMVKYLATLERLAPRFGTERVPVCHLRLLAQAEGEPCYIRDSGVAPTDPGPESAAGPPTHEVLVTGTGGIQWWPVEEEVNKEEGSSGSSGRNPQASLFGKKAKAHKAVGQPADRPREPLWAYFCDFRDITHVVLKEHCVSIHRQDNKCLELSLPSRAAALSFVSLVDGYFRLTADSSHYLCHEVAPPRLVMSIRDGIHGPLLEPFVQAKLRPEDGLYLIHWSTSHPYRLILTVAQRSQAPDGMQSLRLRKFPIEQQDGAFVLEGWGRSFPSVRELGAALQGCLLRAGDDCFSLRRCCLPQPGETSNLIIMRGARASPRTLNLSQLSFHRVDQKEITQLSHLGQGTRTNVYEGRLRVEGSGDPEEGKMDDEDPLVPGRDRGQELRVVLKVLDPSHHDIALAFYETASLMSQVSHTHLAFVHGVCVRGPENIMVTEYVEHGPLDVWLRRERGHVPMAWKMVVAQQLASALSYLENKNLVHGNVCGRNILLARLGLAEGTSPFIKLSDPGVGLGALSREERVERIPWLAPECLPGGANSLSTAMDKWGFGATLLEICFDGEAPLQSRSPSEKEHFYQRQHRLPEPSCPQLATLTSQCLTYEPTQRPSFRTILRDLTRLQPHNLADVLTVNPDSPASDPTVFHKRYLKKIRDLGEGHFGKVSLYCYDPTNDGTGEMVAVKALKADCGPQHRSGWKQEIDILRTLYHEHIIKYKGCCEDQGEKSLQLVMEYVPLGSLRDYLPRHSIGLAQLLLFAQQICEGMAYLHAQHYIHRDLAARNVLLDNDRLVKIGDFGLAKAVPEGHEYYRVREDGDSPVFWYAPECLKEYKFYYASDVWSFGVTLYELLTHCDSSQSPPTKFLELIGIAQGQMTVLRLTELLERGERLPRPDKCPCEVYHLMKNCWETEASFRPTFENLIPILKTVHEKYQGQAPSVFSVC

| SMILES | Inhibitory rate (%) JAK1 10 μM (JAK1; [1]) [%] | Inhibitory rate (%) Tyk2 1 μM (Tyk2) [%] | inhibition at 10 µM (JAK1; [1]) [%] | inhibition at 1 µM (Tyk2) [%] | inhibition at 1 µM (JAK1) [%] |
| --- | --- | --- | --- | --- | --- |
| NS(=O)(=O)c1ccc(-c2nn(-c3ccccc3C(F)(F)F)c3cc[nH]c(=O)c23)cc1 [Example 212, 4-(4-oxo-1-(2-(trifluoromethyl)phenyl)-4,5-dihydro-1H-pyrazolo[4,3-c]pyridin-3-yl)benzenesulfonamide] |  |  | 99 | 96 |  |
| NS(=O)(=O)c1ccc(-c2nn(-c3ccccc3F)c3cc[nH]c(=O)c23)cc1 [Example 213, 4-(1-(2-fluorophenyl)-4-oxo-4,5-dihydro-1H-pyrazolo[4,3-c]pyridin-3-yl)benzenesulfonamide] |  |  | 98 | 99 |  |
| NS(=O)(=O)c1ccc(-c2nn(-c3ccccc3Cl)c3cc[nH]c(=O)c23)cc1 [Example 214, 4-(1-(2-chlorophenyl)-4-oxo-4,5-dihydro-1H-pyrazolo[4,3-c]pyridin-3-yl)benzenesulfonamide] |  |  | 99 | 99 |  |
| NC(=O)c1ccc(-c2nn(-c3c(F)cccc3F)c3c(Cl)c[nH]c(=O)c23)cc1F [Example 215, 4-(7-chloro-1-(2,6-difluorophenyl)-4-oxo-4,5-dihydro-1H-pyrazolo[4,3-c]pyridin-3-yl)-2-fluorobenzamide] |  |  | 22 | 94 |  |
| CNC(=O)c1ccc(-c2nn(-c3c(F)cccc3F)c3c(Cl)c[nH]c(=O)c23)cc1F [Example 216, 4-(7-chloro-1-(2,6-difluorophenyl)-4-oxo-4,5-dihydro-1H-pyrazolo[4,3-c]pyridin-3-yl)-2-fluoro-N-methylbenzamide] |  |  | 27 | 97 |  |
| COCCNC(=O)COc1ccc(-c2nn(-c3c(F)cccc3F)c3c(Cl)c[nH]c(=O)c23)cc1 [Example 217, 2-(4-(7-chloro-1-(2,6-difluorophenyl)-4-oxo-4,5-dihydro-1H-pyrazolo[4,3-c]pyridin-3-yl)phenoxy)-N-(2-methoxyethyl)acetamide] |  |  | 74 | 99 |  |
| O=C1CCC(=O)N1Cc1ccc(-c2nn(-c3c(F)cccc3F)c3c(Cl)c[nH]c(=O)c23)cc1 [Example 219, 1-(4-(7-chloro-1-(2,6-difluorophenyl)-4-oxo-4,5-dihydro-1H-pyrazolo[4,3-c]pyridin-3-yl)benzyl)pyrrolidine-2,5-dione] |  |  | 82 | 98 |  |
| O=C1CCCN1Cc1cc(-c2nn(-c3c(F)cccc3F)c3c(Cl)c[nH]c(=O)c23)cs1 [Example 220, 7-chloro-1-(2,6-difluorophenyl)-3-(5-((2-oxopyrrolidin-1-yl)methyl)-3-thienyl)-1,5-dihydro-4H-pyrazolo[4,3-c]pyridin-4-one] |  |  | 98 | 100 |  |
| CNC(=O)COc1ccc(-c2nn(-c3c(F)cccc3F)c3c(Cl)c[nH]c(=O)c23)cc1 [Example 221, 2-(4-(7-chloro-1-(2,6-difluorophenyl)-4-oxo-4,5-dihydro-1H-pyrazolo[4,3-c]pyridin-3-yl)phenoxy)-N-methylacetamide] |  |  |  | 99 | 80 |
| CCNC(=O)n1cc(-c2nn(-c3c(F)cccc3F)c3c(Cl)c[nH]c(=O)c23)cn1 [Example 222, 4-(7-chloro-1-(2,6-difluorophenyl)-4-oxo-4,5-dihydro-1H-pyrazolo[4,3-c]pyridin-3-yl)-N-ethyl-1H-pyrazole-1-carboxamide] |  |  |  | 98 | 69 |
| O=C1NCCN1c1ccc(-c2nn(-c3c(F)cccc3F)c3c(Cl)c[nH]c(=O)c23)cc1 [Example 225, 7-chloro-1-(2,6-difluorophenyl)-3-(4-(2-oxoimidazolidin-1-yl)phenyl)-1,5-dihydro-4H-pyrazolo[4,3-c]pyridin-4-one] |  |  |  | 99 | 58 |
| Cn1cnc2cc(-c3nn(-c4c(F)cccc4F)c4c(Cl)c[nH]c(=O)c34)ccc21 [Example 226, 7-chloro-1-(2,6-difluorophenyl)-3-(1-methyl-1H-benzimidazol-5-yl)-1,5-dihydro-4H-pyrazolo[4,3-c]pyridin-4-one] |  |  |  | 98 | 40 |
| O=C1Cc2ccc(-c3nn(-c4c(F)cccc4F)c4c(Cl)c[nH]c(=O)c34)cc2N1 [Example 227, 7-chloro-1-(2,6-difluorophenyl)-3-(2-oxo-2,3-dihydro-1H-indol-6-yl)-1,5-dihydro-4H-pyrazolo[4,3-c]pyridin-4-one] |  |  |  | 97 | 54 |

Results, then the molecule that gave them:

| Inhibitory rate (%) JAK1 10 μM (JAK1; [1]) [%] | Inhibitory rate (%) Tyk2 1 μM (Tyk2) [%] | inhibition at 10 µM (JAK1; [1]) [%] | inhibition at 1 µM (Tyk2) [%] | inhibition at 1 µM (JAK1) [%] | SMILES |
| --- | --- | --- | --- | --- | --- |
| 99 | 97 |  |  |  | CCC1(O)CCC(n2nc(-c3ccc(S(N)(=O)=O)cc3)c3c(=O)[nH]ccc32)CC1 (centres unmarked) [Example 210, 4-(1-(4-ethyl-4-hydroxycyclohexyl)-4-oxo-4,5-dihydro-1H-pyrazolo[4,3-c]pyridin-3-yl)benzenesulfonamide] |
|  |  | 99 | 98 |  | Cc1ccccc1-n1nc(-c2ccc(S(N)(=O)=O)cc2)c2c(=O)[nH]ccc21 [Example 211, 4-(1-(2-methylphenyl)-4-oxo-4,5-dihydro-1H-pyrazolo[4,3-c]pyridin-3-yl)benzenesulfonamide] |
|  |  | 85 | 99 |  | O=c1[nH]cc(Br)c2c1c(-c1ccc(N3CCOCC3)cc1)nn2-c1c(F)cccc1F [Example 218, 7-bromo-1-(2,6-difluorophenyl)-3-(4-(morpholin-4-yl)phenyl)-1,5-dihydro-4H-pyrazolo[4,3-c]pyridin-4-one] |
|  |  |  | 97 | 99 | CNS(=O)(=O)c1ccc(-c2nn(C3CCCC3)c3cc[nH]c(=O)c23)cc1 [Example 223, 4-(1-cyclopentyl-4-oxo-4,5-dihydro-1H-pyrazolo[4,3-c]pyridin-3-yl)-N-methylbenzenesulfonamide] |
|  |  |  | 99 | 78 | O=C1CCCN1Cc1ccc(-c2nn(-c3c(F)cccc3F)c3c(Cl)c[nH]c(=O)c23)cc1 [Example 224, 7-chloro-1-(2,6-difluorophenyl)-3-(4-((2-oxopyrrolidin-1-yl)methyl)phenyl)-1,5-dihydro-4H-pyrazolo[4,3-c]pyridin-4-one] |
|  |  |  | 99 | 85 | N#Cc1c[nH]c(=O)c2c(-c3cn[nH]c3)nn(-c3c(F)cccc3F)c12 [Example 228, 1-(2,6-difluorophenyl)-4-oxo-3-(1H-pyrazol-4-yl)-4,5-dihydro-1H-pyrazolo[4,3-c]pyridine-7-carbonitrile] |
|  |  |  | 98 | 81 | N#Cc1c[nH]c(=O)c2c(-c3ccc(N4CCOCC4)cc3)nn(-c3c(F)cccc3F)c12 [Example 229, 1-(2,6-difluorophenyl)-3-(4-(morpholin-4-yl)phenyl)-4-oxo-4,5-dihydro-1H-pyrazolo[4,3-c]pyridine-7-carbonitrile] |
|  |  |  | 99 | 92 | NC(=O)c1ccc(-c2nn(-c3c(F)cccc3F)c3cc[nH]c(=O)c23)cc1 [Example 230, 4-(1-(2,6-difluorophenyl)-4-oxo-4,5-dihydro-1H-pyrazolo[4,3-c]pyridin-3-yl)benzamide] |
|  |  |  | 99 | 51 | COCCNC(=O)c1ccc(-c2nn(-c3c(F)cccc3F)c3c(Cl)c[nH]c(=O)c23)cc1 [Example 231, 4-(7-chloro-1-(2,6-difluorophenyl)-4-oxo-4,5-dihydro-1H-pyrazolo[4,3-c]pyridin-3-yl)-N-(2-methoxyethyl)benzamide] |
